According to patent US9932637B2, “Genetic polymorphisms associated with cardiovascular disorders and drug response, methods of detection and uses thereof” (CELERA CORPORATION, priority 2003, dated 2018):

System: patients with prior myocardial infarction (CARE study)
Test: CARE: association of SNPs with pravastatin treatment in cardiovascular events prevention (logistic regression, odds ratio pravastatin vs placebo by genotype; Table 8)
Assay type: in vivo, human
Settings: for Any Report of Stroke Prior to or During CARE, n/total (%) / Cardiovascular Mortality, n/total (%) / Fatal Atherosclerotic Cardiovascular Disease, n/total (%) / Fatal Coronary Heart Disease, n/total (%) / Fatal/Non-fatal Atherosclerotic CV Disease, n/total (%) / Total Coronary Heart Disease Events, n/total (%) / Total Mortality, n/total (%) / Hosp. for Cardiovascular Disease, n/total (%) / Total Cardiovascular Disease Events, n/total (%): Prava arm; for Odds ratio pravastatin vs placebo: TGFB1 hCV8708473, All Patients
From the text: In order to identify genetic markers associated with acute coronary events (e.g. MI, stroke, unstable angina, congestive heart failure, etc.) or response to statin treatment for the prevention of coronary events, samples from the Cholesterol and Recurrent Events (CARE) study (a randomized multicentral double-blinded trial on secondary prevention of acute coronary events with pravastatin) (Sacks et al., 1991, Am. J. Cardiol. 68: 1436-1446) were genotyped. A well-documented myocardial infarction (MI) was one of the enrollment criteria for entry into the CARE study. Patients were enrolled in the CARE trial from 80 participating study centers. […] Patients were randomized to receive either 40 mg of pravastatin once daily or a matching placebo. The primary endpoint of the trial was death from coronary heart disease and the median duration of follow-up was 5.0 years (range, 4.0 to 6.2 years). […] Secondary endpoints of other related cardiovascular or metabolic disease events, and changes in clinical variables were also recorded in pravastatin-treated and placebo groups. All individuals included in the study had signed a written informed consent form and the study protocol was approved by the respective Institutional Review Boards (IRBs).
For genotyping SNPs in CARE patient samples, DNA was extracted from blood samples using conventional DNA extraction methods such as the QIA-amp kit from Qiagen. Genotypes were obtained on an ABI PRISM® 7900HT Sequence Detection PCR system (Applied Biosystems, Foster City, Calif.) by kinetic allele-specific PCR, similar to the method described by Germer et al. (Germer S., Holland M. J., Higuchi R. 2000, Genome Res. 10: 258-266).
Statistical analysis for association of SNPs with pravastatin treatment in cardiovascular events prevention (Table 8) was carried out using an overall logistic regression model that included an intercept, a parameter for the effect of a genotype containing two rare alleles versus a genotype containing no rare alleles, a parameter for the effect of a genotype containing one rare allele versus a genotype containing no rare alleles, a parameter for the effect of use of pravastatin versus the use of placebo, and parameters for the interaction effects between SNP genotypes and pravastatin use. The test of the overall model is a chi-square test with two degrees of freedom for analyses containing all three genotypes, and one degree of freedom for analyses containing two genotypes.
Effect sizes were estimated through odds ratios (pravastatin group versus placebo) for carriers of each genotype (groups of 0, 1, and 2 minor allele carriers). The effect was considered to be significant if p-value for testing whether any of the interactions between SNP genotypes and pravastatin use were <0.05. […] Odds ratios less than one indicate that the specific SNP allele has a protective effect and odds ratios greater than one indicate that the specific SNP allele has an adverse effect.

[1] = TGFB1 hCV8708473, All Patients, 1 Rare Allele
[2] = TGFB1 hCV8708473, All Patients, 2 Rare Alleles
[3] = TGFB1 hCV22272997, All Patients, 0 Rare Alleles
[4] = TGFB1 hCV22272997, All Patients, 1 Rare Allele
[5] = TGFB1 hCV22272997, All Patients, 2 Rare Alleles
[6] = TLR5 hCV15871020, All Patients, 0 Rare Alleles
[7] = TLR5 hCV15871020, All Patients, 1 Rare Allele

SMILES: CC[C@H](C)C(=O)O[C@H]1C[C@H](O)C=C2C=C[C@H](C)[C@H](CC[C@@H](O)C[C@@H](O)CC(=O)O)[C@H]21 [pravastatin]
- Any Report of Stroke Prior to or During CARE, n/total (%) [1]: (3.8%)
- Cardiovascular Mortality, n/total (%) [1]: (1.7%)
- Fatal Atherosclerotic Cardiovascular Disease, n/total (%) [1]: (1.7%)
- Fatal Coronary Heart Disease, n/total (%) [1]: (1.2%)
- Fatal/Non-fatal Atherosclerotic CV Disease, n/total (%) [1]: (27.9%)
- Total Coronary Heart Disease Events, n/total (%) [1]: (23.9%)
- Total Mortality, n/total (%) [1]: (3.8%)
- Any Report of Stroke Prior to or During CARE, n/total (%) [2]: (3.7%)
- Cardiovascular Mortality, n/total (%) [2]: (3.1%)
- Fatal Atherosclerotic Cardiovascular Disease, n/total (%) [2]: (3.1%)
- Fatal Coronary Heart Disease, n/total (%) [2]: (2.5%)
- Fatal/Non-fatal Atherosclerotic CV Disease, n/total (%) [2]: (38.3%)
- Total Coronary Heart Disease Events, n/total (%) [2]: (37.0%)
- Total Mortality, n/total (%) [2]: (4.9%)
- Odds ratio pravastatin vs placebo (Any Report of Stroke Prior to or During CARE, 0 rare alleles): 1.35
- Odds ratio pravastatin vs placebo (Any Report of Stroke Prior to or During CARE, 1 rare allele): 0.68
- Odds ratio pravastatin vs placebo (Any Report of Stroke Prior to or During CARE, 2 rare alleles): 0.38
- Odds ratio pravastatin vs placebo (Cardiovascular Mortality, 0 rare alleles): 1.95
- Odds ratio pravastatin vs placebo (Cardiovascular Mortality, 1 rare allele): 0.30
- Odds ratio pravastatin vs placebo (Cardiovascular Mortality, 2 rare alleles): 0.48
- Odds ratio pravastatin vs placebo (Fatal Atherosclerotic Cardiovascular Disease, 0 rare alleles): 1.90
- Odds ratio pravastatin vs placebo (Fatal Atherosclerotic Cardiovascular Disease, 1 rare allele): 0.30
- Odds ratio pravastatin vs placebo (Fatal Atherosclerotic Cardiovascular Disease, 2 rare alleles): 0.48
- Odds ratio pravastatin vs placebo (Fatal Coronary Heart Disease, 0 rare alleles): 1.79
- Odds ratio pravastatin vs placebo (Fatal Coronary Heart Disease, 1 rare allele): 0.26
- Odds ratio pravastatin vs placebo (Fatal Coronary Heart Disease, 2 rare alleles): 0.49
- Odds ratio pravastatin vs placebo (Fatal/Non-fatal Atherosclerotic CV Disease, 0 rare alleles): 0.94
- Odds ratio pravastatin vs placebo (Fatal/Non-fatal Atherosclerotic CV Disease, 1 rare allele): 0.59
- Odds ratio pravastatin vs placebo (Fatal/Non-fatal Atherosclerotic CV Disease, 2 rare alleles): 0.81
- Odds ratio pravastatin vs placebo (Total Coronary Heart Disease Events, 0 rare alleles): 0.91
- Odds ratio pravastatin vs placebo (Total Coronary Heart Disease Events, 1 rare allele): 0.58
- Odds ratio pravastatin vs placebo (Total Coronary Heart Disease Events, 2 rare alleles): 1.00
- Odds ratio pravastatin vs placebo (Total Mortality, 0 rare alleles): 1.50
- Odds ratio pravastatin vs placebo (Total Mortality, 1 rare allele): 0.48
- Odds ratio pravastatin vs placebo (Total Mortality, 2 rare alleles): 0.65
- Cardiovascular Mortality, n/total (%) [3]: (5.6%)
- Fatal Atherosclerotic Cardiovascular Disease, n/total (%) [3]: (5.6%)
- Fatal Coronary Heart Disease, n/total (%) [3]: (5.2%)
- Total Coronary Heart Disease Events, n/total (%) [3]: (32.5%)
- Total Mortality, n/total (%) [3]: (7.4%)
- Cardiovascular Mortality, n/total (%) [4]: (2.5%)
- Fatal Atherosclerotic Cardiovascular Disease, n/total (%) [4]: (2.4%)
- Fatal Coronary Heart Disease, n/total (%) [4]: (2.0%)
- Total Coronary Heart Disease Events, n/total (%) [4]: (25.0%)
- Total Mortality, n/total (%) [4]: (4.6%)
- Cardiovascular Mortality, n/total (%) [5]: (2.5%)
- Fatal Atherosclerotic Cardiovascular Disease, n/total (%) [5]: (2.5%)
- Fatal Coronary Heart Disease, n/total (%) [5]: (2.0%)
- Total Coronary Heart Disease Events, n/total (%) [5]: (33.2%)
- Total Mortality, n/total (%) [5]: (3.7%)
- Fatal/Non-fatal Atherosclerotic CV Disease, n/total (%) [6]: (34.4%)
- Hosp. for Cardiovascular Disease, n/total (%) [6]: (40.8%)
- Total Cardiovascular Disease Events, n/total (%) [6]: (42.0%)
- Total Coronary Heart Disease Events, n/total (%) [6]: (30.5%)
- Fatal/Non-fatal Atherosclerotic CV Disease, n/total (%) [7]: (32.1%)
- Hosp. for Cardiovascular Disease, n/total (%) [7]: (40.8%)
- Total Cardiovascular Disease Events, n/total (%) [7]: (41.8%)
- Total Coronary Heart Disease Events, n/total (%) [7]: (27.2%)
